Measurements as given in patent US9394520B2, “Expansion of hematopoietic stem cells” (University of Rochester, priority 2006, dated 2016).
Entries after “also recorded” stand apart in the source; their conditions may differ.

How the values were obtained:
Jagged1 [1] = assay: Jagged1 mRNA by real time RT-PCR in UMR106 cells; format: cell-based
Description: UMR 106 cells were serum starved for 24 hours and then treated with a single dose of vehicle (controls) or PGE2 at a concentration of 10^-7 M. RNA was collected from both control and treated samples to assess the fold change in Jagged1 mRNA by real time RT-PCR analysis corrected for by beta-actin. FIG. 1B is a Western blot showing total protein that was collected from both control and treated samples exposed to Jagged1 antibody, C20. Positive control (+ctr) was provided by HS27a cells, a human stromal cell line with high levels of Jagged1 protein, while HS5 cells from a human stromal cell line with minimal Jagged1 levels were used as a negative control. […] UMR106 cells were serum starved for 24 hours. They were pre-treated with H89 for 30 minutes followed by a single dose of PGE2 at 10^-7 M or vehicle. RNA was collected from both control and treated samples to assess the fold change in Jagged1 RNA by real time RT-PCR analysis corrected for by β-actin. […] UMR106 cells were serum starved for 24 hours. […] Total protein was collected from both PGE2 and vehicle treated samples for Western blot analysis with Jagged1 antibody C-20. UMR106 cells were grown in DMEM supplemented with 1.5 g/l sodium bicarbonate, 10% FBS, penicillin (100 U/ml), streptomycin (100 U/ml). After three days of growth the cells were 80% confluent and media was replaced with serum-free media. After 24 hr in serum-free media, PGE2 was added in noted concentrations. UMR 106 cells were treated with the Protein Kinase A (PKA) inhibitors H89 (0.5 hr prior to PGE2 treatment), and myristoylated PKI (0.5 hr prior to PGE2 treatment). […] At the designated times, total RNA and protein were harvested. Total RNA was extracted and analyzed by real time RT-PCR, normalizing for β-actin expression and t=0. Total protein was analyzed by Western blots performed using the […] system (Invitrogen, Carlsbad, Calif.). Blots were probed with Jag1 c-20 antibody (Santa Cruz Biotechnology, Inc., Santa Cruz, Calif.), and the loading control was B-actin.

Jagged1 [2] = assay: Jagged1 protein by Western blot in UMR106 cells; format: cell-based; settings: UMR106 cells, PKI 200 μg/ml pre-treatment, then PGE2 10^−7 M
Description: UMR 106 cells were serum starved for 24 hours and then treated with a single dose of vehicle (controls) or PGE2 at a concentration of 10^-7 M. RNA was collected from both control and treated samples to assess the fold change in Jagged1 mRNA by real time RT-PCR analysis corrected for by beta-actin. FIG. 1B is a Western blot showing total protein that was collected from both control and treated samples exposed to Jagged1 antibody, C20. Positive control (+ctr) was provided by HS27a cells, a human stromal cell line with high levels of Jagged1 protein, while HS5 cells from a human stromal cell line with minimal Jagged1 levels were used as a negative control. FIG. 2A is a graph showing that inhibition of PKA blocks PGE2-dependent increase of Jagged1 in UMR 106 cells. UMR106 cells were serum starved for 24 hours. They were pre-treated with H89 for 30 minutes followed by a single dose of PGE2 at 10^-7 M or vehicle. RNA was collected from both control and treated samples to assess the fold change in Jagged1 RNA by real time RT-PCR analysis corrected for by β-actin. […] UMR106 cells were serum starved for 24 hours. […] Total RNA was extracted and analyzed by real time RT-PCR, normalizing for β-actin expression and t=0. Total protein was analyzed by Western blots performed using the […] system (Invitrogen, Carlsbad, Calif.). […]

**Q.** For CCCC(=O)Nc1ncnc2c1ncn2[C@@H]1O[C@@H]2COP(=O)(O)O[C@H]2[C@H]1OC(=O)CCC [dibutyryl-cAMP, n6 2′-0-dibutyryladenosine-3′, 5′-cyclic monophpsphate], which “Jagged1 increase by cAMP analogs that activate PKA” value (Jagged1 [1]; UMR106 cells) is on record?
**A.** Its value is “sufficient to increase Jagged1”.

**Q.** Which “PGE2-induced expression of Jagged1” value (Jagged1 [1]; osteoblastic cells pretreated 30 minutes with 30 μM AH23848, then PGE2) does the source give for O=C(O)CC/C=C\CC[C@H]1[C@H](N2CCOCC2)C(=O)C[C@H]1OCc1ccc(-c2ccccc2)cc1 [AH23848] here?
**A.** The value was “did not inhibit”.

**Q.** Which “PGE2-dependent Jagged1 mRNA increase in presence of PKA inhibitor” value (Jagged1 [1]; UMR106 cells, H89 pre-treatment 30 minutes, then PGE2 10^−7 M) does the source give for O=S(=O)(NCCNC/C=C/c1ccc(Br)cc1)c1cccc2cnccc12 [H89] here?
**A.** The value was “blocked; also recorded: inhibited”.

**Q.** For CCCC1([C@H](O)C/C=C/[C@H]2[C@H](O)CC(=O)[C@@H]2CCCCCCC(=O)OC)CCC1 [Butaprost, butaprost], which “PGE2-induced Jagged1 expression” value (Jagged1 [1]; UMR 106 cells, butaprost 10 μM) is on record?
**A.** The value was “inhibited”.

**Q.** For “myristoylated PKA Inhibitory Peptide (14-22) [PKI]”, which “PGE2-dependent Jagged1 protein increase in presence of PKA inhibitor” value (Jagged1 [2]) is on record?
**A.** The value was “blocked; also recorded: inhibited”.
